Experimental findings from patent US9872851B2, “Methods of treating portal hypertension” (The Charlotte-Mecklenburg Hospital Authority, priority 2012, dated 2018) are described below.

For assay [1], the system named is primary rat HSCs. Kind of assay: qRT-PCR gene expression in culture-activated primary rat HSCs. Format: cell-based. The protocol:
(§1) A series of experiments were conducted to determine the functional role of Rev-erbα in HSC transdifferentiation. In these experiments, culture-activated primary rat HSCs and human LX-2 cells were used. To determine the effect of Rev-erbα on HSC transdifferentiation and contraction, cells were treated with a specific synthetic modulator, SR6452 (10 μM). mRNA and protein expression were determined by qRT-PCR and Western blot, respectively. Changes in cellular morphology, Rev-erbα expression/localization and αSMA expression were observed by confocal microscopy. Additionally, cell contractility was assessed.
(§2) Primary rat HSCs were isolated by pronase/collagenase perfusion digestion followed by density gradient centrifugation with Optiprep. Media was replaced every other day to replenish Rev-erb modulator SR6452, which was present at a 10 μM concentration. Cells were treated with MDIR mixture (IBMX, dexamethasone, insulin, rosiglitazone), TGFβ, or DMSO (vehicle). Some experiments were performed with the human HSC cell line, LX-2.
mRNA expression was normalized to 18S rRNA.
(§3) FIGS. 3A-B illustrates that modulation of Rev-erbα activity can regulate adipogenesis. Primary HSCs were culture-activated for 5 days (A) or 15 days (B). Cells were treated with vehicle (DMSO, open bar), or the Rev-erb modulator SR6452 (10 mM, purple bar) for the days indicated. The medium was changed every 48 hrs. FIG. 3A provides a chart summarizing the amount of PPARγ, SREBP1, and Lep mRNA on day 5.
FIGS. 4A-B illustrate that the Rev-erb modulator SR6452 can suppress/decrease ECM gene expression. Primary rat HSCs were cultured from quiescence (day Q) to day 5 (FIG. 4A) or from day 9 to day 12 (FIG. 4B) and treated with Rev-erb modulator SR6452. qRT-PCR was performed to determine ECM gene expression. DMSO was used as the vehicle control, while SR6452 was used as the Rev-erb modulator.
(§4) FIGS. 5A-D illustrate that Rev-erb modulator SR6452 can regulate myofibroblast marker expression and HSC contraction. Primary rat HSCs were cultured from quiescence (day Q) to day 5 (FIG. 5A) or from day 9 to day 12 (FIG. 5B) and treated with Rev-erb modulator SR6452. qRT-PCR was performed for myofibroblast gene expression. Samples were normalized with 18S rRNA. […] HSCs (day 5) were embedded in a collagen gel and treated as indicated for 48 hrs. Gels were then released from plastic surface and contraction monitored after 72 hrs. Materials used were DMSO (vehicle control), SR6452, Rev-erb modulator; and BDM (2,3-Butanedione monoxime), myosin inhibitor.
(In general: Real-time PCR tracks product formation cycle by cycle.)

For assay [2], the system named is primary HSCs. Kind of assay: Oil Red O staining / adipogenesis of HSCs. It is filed as cell-based, rat. The protocol:
FIGS. 3A-B illustrate how modulation of Rev-erbα activity can regulate adipogenesis. Primary HSCs were culture-activated for 5 days (A) or 15 days (B). Cells were treated with vehicle, DMSO (open bar), or Rev-erb agonist SR6452 ([…], solid bar). FIG. 3A provides a graph summarizing the amount of PPARγ, SREBP1, and Lep mRNA detected after 5 days of culture.
as §2, §3

Assay [3] has as its system primary HSCs. Kind of assay: Immunocytochemistry (αSMA, DAPI) and cellular morphology by confocal microscopy. It is filed as cell-based, rat. As to conditions: HSCs (day 9) treated 72 hrs. The protocol:
as §1
Prior to transfection, culture-activated HSCs (for varying days of activation) were seeded onto glass coverslips. Cells were fixed with 4% paraformaldehyde and stained with anti-αSMA antibody, a marker of HSC activation. Cells were imaged using a Zeiss confocal microscope. The fluorescence indicates Rev-erbα or αSMA expression.
FIGS. 5A-D illustrate that Rev-erb modulator SR6452 can regulate myofibroblast marker expression and HSC contraction. Primary rat HSCs were cultured from quiescence (day Q) to day 5 (FIG. 5A) or from day 9 to day 12 (FIG. 5B) and treated with Rev-erb modulator SR6452. qRT-PCR was performed for myofibroblast gene expression. Samples were normalized with 18S rRNA. […] Gels were then released from plastic surface and contraction monitored after 72 hrs. […]

Assay [4] has as its system primary rat HSCs. Kind of assay: Cell contraction assay (collagen lattice). It is filed as cell-based. Conditions: collagen gel, SR6452. The protocol:
Primary rat HSCs (day 9, 2-5×10^6 cells/ml) were embedded in a collagen lattice per manufacturer's instructions. Cells were treated with synthetic Rev-erbα ligand SR6452. Collagen gel size change was imaged using a BioSpectrum Imaging System.
as §4

A further assay has as its system cirrhotic rats. Kind of assay: Hemodynamic measurements in bile duct-ligated (BDL) rats. Format: in vivo, rat. Conditions: 10 μM/kg femoral vein, one hour. The protocol:
Studies were performed to determine the in vivo efficacy of using SR6452 as a treatment for portal hypertension. Rats underwent bile duct-ligation (˜5 weeks, until ascites developed) to induce fibrosis and thus portal hypertension. Initial hemodynamic measurements were taken prior to addition of the agonist. SR6452 (10 μM/kg body weight) was administered via the femoral vein and measurements taken again one hour after administration. Experiments were performed 5 weeks after male Sprague-Dawley rats underwent bile duct-ligation (BDL), when cirrhosis was fully established and ascites present. SR6452 (10 μM/kg body weight) was administered via the femoral vein and hemodynamic measurements taken one hour after administration. Hemodynamic studies were performed as previously described (J Hepatol 2012 57:1220-1227). Briefly, a laparotomy was performed under anesthesia. A PE-50 catheter was introduced into a small ileocolic vein and advanced to the portal vein for measurement of portal pressure. The left femoral artery and vein were cannulated with PE-50 catheters for measurement of mean arterial pressure, central venous pressure and blood withdrawal. Via the right carotid artery, another PE-50 catheter was advanced into the left ventricle under pulse curve control, for microsphere application. After insertion of all catheters, rats were allowed to stabilize hemodynamically for 30 min. Cardiac output and organ perfusions were measured using the colored microsphere method as described (J Hepatol 2012 57:1220-1227). Briefly, 300,000 systemic (yellow) microspheres (15 μm diameter) were injected in the left ventricle. The mesenteric portal-systemic shunt volume was estimated after injection of 150,000 blue microspheres in an ileocolic vein.

For a further assay, the system named is Rev-erbα. Kind of assay: Western blot of Rev-erbα in HSCs treated with pro- and anti-fibrogenic factors. Format: cell-based, rat. The protocol:
FIGS. 2A-B illustrate the regulation of Rev-erbα expression by pro- and anti-fibrogenic factors. […] Cells were harvested for protein and Western blots performed to detect Rev-erbα.
as §2
FIG. 2B show results from primary HSCs that were treated with pro-fibrogenic factor TGFβ (5 ng/ml) or myosin inhibitors blebbistatin (Bleb) or BDM (2,3-Butanedione monoxime) for 48 hrs. Cells were harvested for protein and Western blots performed to detect Rev-erbα.
On the technique in general: Immunoblotting shows a protein as a band on a membrane.

Setting [5] is: SR6452 10 μM, day Q to day 5 or day 9 to day 12.

Take `CC(C)(C)OC(=O)CN(Cc1ccc(Cl)cc1)Cc1ccc([N+](=O)[O-])s1` [SR6452]: in the assay on primary rat HSCs [1] (setting [5]), the “effects on major regulatory and structural genes controlling myofibroblast contraction” value was “repressive effects”; the “expression of key extracellular matrix components, including Type I collagen, fibronectin, and tenascin C” value is given as “significantly down-regulated”. Moreover, the “expression of major adipogenic factors, notably PPARγ and SREBP1” value in the assay on primary rat HSCs [1] (SR6452 10 μM, mRNA, day 5) is given as “up-regulated”. Moreover, the “effect on HSC activation” value with primary rat HSCs [1] (overall conclusion of the in vitro data) is on record as “suppressive effect”. In addition, in the assay with primary HSCs [2] (SR6452 10 μM, primary HSCs), the “lipid content in activated HSCs” value is “increased”. In addition, the HSC adipogenesis result in the assay on primary HSCs [2] (exposure of quiescent HSCs) was “promoted”. In addition, in the assay on primary HSCs [3], the “morphology of treated primary HSCs” value is listed as “slightly rounded/folded cytoplasm with disoriented actin fibers”. Also, the HSC contraction result in the assay on primary rat HSCs [4] is on record as “impeded”. In addition, in the assay on cirrhotic rats (mean, p=0.017), the “portal pressure (PP) after SR6452” value was determined as 19.1 mmHg. The “hepatic-portal vascular resistance after SR6452” value with cirrhotic rats (mean, p=0.043) stood at 8.8 mmHg/min/100 g/ml. The “splanchnic vascular resistance after SR6452” value with cirrhotic rats (mean, p=0.048) was found to be 27.5 mmHg/min/100 g/ml. In the assay on cirrhotic rats (vs baseline), the “reduction in hepatic-portal vascular resistance” value came to 36% and the “reduction in splanchnic vascular resistance” value is given as 13.5%.

Regarding TGFβ, in the assay with Rev-erbα (TGFβ 5 ng/ml, 48 hrs), the “cytoplasmic Rev-erbα” value was “stabilized”. Moreover, the Rev-erbα protein expression entry in the assay on Rev-erbα (Western blot) is “increased”.
